Data: paper PMC10814725, “In Vitro Anti-Inflammatory Study of Limonoids Isolated from Chisocheton Plants” (Current Issues in Molecular Biology, 2024)

Assays:
[1] = system: TNF-α, IL-6, IL-1β, and MCP-1; experiment: ELISA of pro-inflammatory markers overall (TNF-α, IL-6, IL-1β, MCP-1) in LPS-stimulated THP-1 cells; format: cell-based; conditions: Homo sapiens, read-out: Overall IC50 values for the evaluated pro-inflammatory markers
Method in brief: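 PMA (0.5 μM)-differentiated THP-1 cells, rested overnight in 0.1% FBS medium, pretreated with compound 1 h, then LPS (10 ng/mL) for 18 h at 37 °C. Supernatant cytokines measured by human ELISA (pg/mL); % inhibition normalised to LPS+ and LPS− controls, IC50 by linear interpolation.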

in vitro = format: cell-based; conditions: mouse
phosphorylated-p38 MAPK = experiment: Western blotting of phosphorylated-p38 MAPK in LPS-stimulated THP-1 cells; format: cell-based, human; conditions: 10 µM, LPS 10 ng/mL, 18 h, compared to LPS (+) group
Procedure: THP-1 cells were seeded at a density of 1 × 10^6 cells/well in 24-well plates. The cells were then pretreated with a concentration of 10 µM of compounds 3, 5, 9, or 15 for 1 h. Subsequently, LPS (10 ng/mL) was added to the cells, which were incubated for 18 h. The protein concentrations were determined using a bicinchoninic acid (BCA) assay kit.
For Western blot analysis, proteins were separated by SDS-PAGE and transferred onto a polyvinylidene fluoride (PVDF) membrane. The membranes were blocked with 2.5% BSA in Tris-buffered saline-Tween (TBST) for 1 h at room temperature. After three washes with TBST, the membranes were incubated with a diluted primary antibody solution (anti-phosphorylated-p38 MAPK or anti-p38 MAPK) at a 1:1000 dilution for 1 h at room temperature. After three washes with TBS-T, the membranes were incubated with a secondary antibody conjugated to horseradish peroxidase (HRP; 1:4000 dilution) for 30 min at room temperature and subsequently detected by chemiluminescence. Finally, the bands were visualized and quantified using an ImageQuant 800 GxP system (Cytiva, MA, USA). The results were expressed as ratios relative to the reference protein β-actin.

| SMILES | IC50 [1] [µM] | viability at 5 µM (in vitro) [%] | viability at 10 µM (in vitro) [%] | viability at 20 µM (in vitro) [%] | Effect on p-p38 MAPK levels (phosphorylated-p38 MAPK) |
| --- | --- | --- | --- | --- | --- |
| CC(=O)O[C@H]1[C@@H](O)[C@@]2(C)C3=CC[C@@H](c4ccoc4)[C@]3(C)CC[C@@H]2[C@@]2(C)C=CC(=O)C(C)(C)[C@H]12 [Compound 3, 6α-O-acetyl-7-deacetylnimocinol] | < 20 | 90.3 ± 5.24 | 91.4 ± 8.26 | 70.2 ± 2.29 | significantly suppressed |
| CC(=O)O[C@H]1[C@@H](OC(C)=O)[C@@]2(C)C3=CC[C@@H](c4ccoc4)[C@]3(C)CC[C@@H]2[C@@]2(C)C=CC(=O)C(C)(C)[C@H]12 [Compound 5, dysobinin] | < 20 | 83.6 ± 8.91 | 84.29 ± 0.28 | 3.19 ± 1.24 | significantly suppressed |
